Assay results reported in US9932621B2, “Modulators for Sirt5 and assays for screening same” (CORNELL UNIVERSITY, priority 2010, dated 2018).
Substitutions are numbered along the chain they refer to. Entries after “also recorded” stand apart in the source; their conditions may differ. Like-named read-outs stand apart in the source and are kept apart here. *1 amine or outer side, *2 acyl side, *3 side chain or, on linkers, in order; H or OH if unused. Where no end group is shown, it is not given here. The star is where a group is joined. AMC = Cc1cc(=O)oc2cc(N*)ccc12; Suc = O=C(CCC(=O)[*:2])[*:1]

Assays:
[1] = molecular target: T1, Sirt5 (Homo sapiens, UniProt Q9NXA8); assay: Sirt5 inhibition IC50 (desuccinylase, HPLC-based assay); assay type: biochemical; details: Sirt5 1 μM, 0.3 mM acyl peptide, 0.5 mM NAD; * = no inhibition at 100 μM
T1 construct: made in house
T1 sequence (Q9NXA8 37-310): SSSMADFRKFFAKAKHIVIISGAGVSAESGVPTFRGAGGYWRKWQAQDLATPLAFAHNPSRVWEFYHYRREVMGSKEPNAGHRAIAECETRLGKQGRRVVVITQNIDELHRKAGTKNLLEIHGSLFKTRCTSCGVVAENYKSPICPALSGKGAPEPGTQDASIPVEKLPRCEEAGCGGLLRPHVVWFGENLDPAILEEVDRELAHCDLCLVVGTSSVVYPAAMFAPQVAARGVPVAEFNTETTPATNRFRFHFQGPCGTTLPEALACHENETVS
Procedure: (§1) All assays were carried out under identical enzyme (1 μM) and substrate (0.3 mM acyl peptide, 0.5 mM NAD) concentrations.

[2] = molecular target: T2, Sirt1 (Homo sapiens, UniProt Q96EB6); details: Sirt1, literature value; read-out: IC50, reported value in parentheses; cited from earlier work
T2 sequence (Q96EB6 1-747): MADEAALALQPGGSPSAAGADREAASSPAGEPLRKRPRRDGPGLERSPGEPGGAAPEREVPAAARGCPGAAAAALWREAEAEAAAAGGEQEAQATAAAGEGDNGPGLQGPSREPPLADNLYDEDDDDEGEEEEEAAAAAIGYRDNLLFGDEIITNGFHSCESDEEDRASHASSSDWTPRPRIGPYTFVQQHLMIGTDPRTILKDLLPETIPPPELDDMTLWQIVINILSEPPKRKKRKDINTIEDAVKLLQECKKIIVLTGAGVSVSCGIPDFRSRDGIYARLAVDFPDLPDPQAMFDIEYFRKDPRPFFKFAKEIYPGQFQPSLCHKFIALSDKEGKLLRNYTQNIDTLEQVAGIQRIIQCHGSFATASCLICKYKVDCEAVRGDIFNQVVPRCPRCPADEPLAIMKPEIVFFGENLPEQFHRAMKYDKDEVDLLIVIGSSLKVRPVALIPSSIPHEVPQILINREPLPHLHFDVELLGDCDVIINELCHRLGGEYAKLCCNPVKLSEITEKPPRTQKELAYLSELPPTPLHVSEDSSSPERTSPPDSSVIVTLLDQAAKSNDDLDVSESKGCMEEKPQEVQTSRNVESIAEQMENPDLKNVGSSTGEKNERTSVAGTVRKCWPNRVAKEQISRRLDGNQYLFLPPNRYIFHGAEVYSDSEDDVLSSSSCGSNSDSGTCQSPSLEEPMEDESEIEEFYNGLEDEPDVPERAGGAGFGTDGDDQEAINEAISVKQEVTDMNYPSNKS

[3] = molecular target: T3, Sirt2 (Homo sapiens, UniProt Q8IXJ6); assay: Sirt2 inhibition IC50; assay type: biochemical
T3 construct: made in house
T3 sequence (Q8IXJ6 1-389): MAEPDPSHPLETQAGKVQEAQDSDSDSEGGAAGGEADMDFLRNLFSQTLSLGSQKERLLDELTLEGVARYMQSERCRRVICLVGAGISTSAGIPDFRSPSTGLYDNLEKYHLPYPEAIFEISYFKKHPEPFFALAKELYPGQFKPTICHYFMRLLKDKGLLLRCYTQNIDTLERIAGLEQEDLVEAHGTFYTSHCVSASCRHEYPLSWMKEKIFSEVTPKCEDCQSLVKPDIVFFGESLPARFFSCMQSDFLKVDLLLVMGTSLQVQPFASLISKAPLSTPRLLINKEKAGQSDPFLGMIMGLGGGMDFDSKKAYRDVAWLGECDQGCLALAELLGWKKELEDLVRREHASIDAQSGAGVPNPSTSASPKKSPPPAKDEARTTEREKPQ
Procedure: as §1

[4] = molecular target: T4, Sirt3 (Homo sapiens, UniProt Q9NTG7); assay: Sirt3 inhibition IC50; assay type: biochemical
T4 construct: made in house
T4 sequence (Q9NTG7 1-399): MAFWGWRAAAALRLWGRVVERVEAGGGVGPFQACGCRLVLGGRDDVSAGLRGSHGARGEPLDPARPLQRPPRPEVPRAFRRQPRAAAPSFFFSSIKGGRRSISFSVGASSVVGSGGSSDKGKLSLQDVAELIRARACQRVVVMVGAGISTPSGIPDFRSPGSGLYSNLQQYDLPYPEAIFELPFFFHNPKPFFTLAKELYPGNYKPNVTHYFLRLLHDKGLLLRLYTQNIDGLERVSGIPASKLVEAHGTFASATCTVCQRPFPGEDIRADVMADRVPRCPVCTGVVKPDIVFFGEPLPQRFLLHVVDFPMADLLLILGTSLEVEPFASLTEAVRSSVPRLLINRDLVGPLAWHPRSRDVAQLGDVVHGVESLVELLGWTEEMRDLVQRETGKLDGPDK
Procedure: as §1

[5] = molecular target: T1, Sirt5; assay: Screening for Sirt5 inhibitors with ISGASE(SuK)-AMC in the fluorogenic assay; assay type: biochemical; details: compound 30 μM, ISGASE(SuK)-AMC 0.3 mM, Sirt5 1 μM, FIG. 13
Procedure: SirT5 (1 μM) was incubated with ISGASE(SuK)-AMC (SEQ ID NO:11) peptide (0.3 mM), NAD (0.5 mM) in Tris-HCl buffer (pH 7.4, 20 mM) with DTT (1 mM) in 60 μL reactions for 4 hours at 37° C. Then trypsin (1 μg) and CaCl2 (1 mM) were added and the reactions were incubated for 3 hours at 37° C. The reactions were the diluted with 50 μL water. The mixture (100 μL) was transferred to 96 well plate and the fluorescence was recorded by BIO-TEK® Synergy HT plate reader (Optics Position: Top, Sensitivity: 50, Excitation at the wavelength of 360 nm and Emission at the wavelength of 460 nm).
The procedure was the same as described above (Assaying Sirt5 activity on ISGASE(SuK)-AMC in the fluorogenic assay), except that different compounds (30 μM) were included in the reactions. In the desuccinylation step, Sirt5 was added last to initiate the desuccinylation reaction.

[6] = molecular target: T3, Sirt2; assay: Secondary screening using Sirt2 and ISGASE(AcK)-AMC fluorogenic assay; assay type: biochemical; details: inhibitor 30 μM, ISGASE(AcK)-AMC 0.3 mM, Sirt2 1 μM, FIG. 15
Procedure: SirT2 (1 μM) was incubated with ISGASE(AcK)-AMC (SEQ ID NO:13) peptide (0.3 mM), inhibitors (30 μM), NAD (0.5 mM) in Tris-HCl buffer (pH 7.4, 20 mM) containing dithiothreitol (DTT, 1 mM) in a 60 μL reaction for 4 hours at 37° C. Then trypsin (1 μg) and CaCl2 (1 mM) were added and the reaction were incubated for 3 hours at 37° C. The reactions were diluted with 50 μL water. The mixture (100 μL) was transferred to 96 well plate and the fluorescence was recorded by BIO-TEK® Synergy HT (Optics Position: Top, Sensitivity: 50, Excitation at the wavelength of 360 nm and Emission at the wavelength of 460 nm).

[7] = molecular target: T2, Sirt1; assay: Sirt1 inhibition IC50; assay type: biochemical; parameters: made in house
Procedure: as §1

[8] = molecular target: T1, Sirt5; assay: Deacylation kinetics (kcat, Km) by HPLC, Sirt5; assay type: biochemical; details: wild-type Sirt5, Table 3
Procedure: (§2) For determination of kcat and Km, human Sirt1, Sirt2, Sirt3 and Sirt5 were measured by detecting the deacylated peptide from H3K9 acyl peptides using HPLC. Purified Sirtuin was incubated with 1.0 mM of NAD in 20 mM Tris-HCl buffer (pH 7.5) containing acyl peptides (0-750 μM) and 1 mM DTT in 60 μL reactions at 37° C. The reactions were stopped with 100 mM HCl and 160 mM acetic acid, analyzed by HPLC with a reverse phase C18 column (250×4.6 mm, 90 A, 10 μm, GraceVydac, Southborough, Mass.), with a linear gradient of 0% to 20% B for 10 min (1 mL/min). […] The kcat and Km values were obtained by curve-fitting the Vinitial/[E] versus [S] plot using KaleidaGraph. For Sirt5 R105M, the observed second order rate constant, kobs (rate/([Sirtuin][NAD])) was detected instead of kcat and Km because of the very weak deacylation activity. The experiments were done in duplicate.

[9] = molecular target: T5, Sirt5 H158Y (Homo sapiens, UniProt Q9NXA8, H158Y); assay: Deacylation kinetics by HPLC, mutant Sirt5 H158Y; assay type: biochemical; details: read-out: Km for peptide
T5 sequence (Q9NXA8 37-310 H158Y): T1 sequence (Q9NXA8 37-310) with H122Y
Procedure: as §2

[10] = molecular target: T6, Sirt5 Y102F (Homo sapiens, UniProt Q9NXA8, Y102F); assay: Deacylation kinetics by HPLC, mutant Sirt5 Y102F; assay type: biochemical; details: read-out: Km for peptide
T6 sequence (Q9NXA8 37-310 Y102F): T1 sequence (Q9NXA8 37-310) with Y66F
Procedure: as §2

[11] = molecular target: T7, Sirt5 R105M (Homo sapiens, UniProt Q9NXA8, R105M); assay: Deacylation kinetics by HPLC, mutant Sirt5 R105M; assay type: biochemical; details: read-out: Km for peptide
T7 sequence (Q9NXA8 37-310 R105M): T1 sequence (Q9NXA8 37-310) with R69M
Procedure: For determination of kcat and Km, human Sirt1, Sirt2, Sirt3 and Sirt5 were measured by detecting the deacylated peptide from H3K9 acyl peptides using HPLC. […] The reactions were stopped with 100 mM HCl and 160 mM acetic acid, analyzed by HPLC with a reverse phase C18 column (250×4.6 mm, 90 A, 10 μm, GraceVydac, Southborough, Mass.), with a linear gradient of 0% to 20% B for 10 min (1 mL/min). […] The kcat and Km values were obtained by curve-fitting the Vinitial/[E] versus [S] plot using KaleidaGraph. […] The experiments were done in duplicate.

[12] = molecular target: T1, Sirt5; assay: Sirt5 fluorogenic assay with KQTAR(SuK)-AMC; assay type: biochemical; details: reaction with Sirt5
Procedure: SirT5 (1 μM) was incubated with KQTAR(SuK)-AMC (SEQ ID NO: 10) peptide (0.3 mM), NAD (0.5 mM) in Tris-HCl buffer (pH 7.4, 20 mM) containing dithiothreitol (DTT, 1 mM) in a 60 μL reaction for 16 hours at 37° C. Then trypsin (1 μg) and CaCl2 (1 mM) were added and the reaction were incubated for 14 hours at 37° C. The reactions were diluted with 50 μL water. The mixture (100 μL) was transferred to 96 well plate and the fluorescence was recorded by BIO-TEK® Synergy HT plate reader (Optics Position: Top, Sensitivity: 50, Excitation at the wavelength of 360 nm and Emission at the wavelength of 460 nm).

[13] = molecular target: T1, Sirt5; assay: Sirt5-catalyzed desuccinylation of AMC-succinyl peptides monitored by HPLC; assay type: biochemical
Procedure: […] The reactions were stopped with 200 mM HCl and 320 mM acetic acid, analyzed by HPLC with a reverse phase C18 column (250×4.6 mm, 90 A, 10 μm, GraceVydac, Southborough, Mass.), with a linear gradient of 0% to 20% B for 10 min (1 mL/min).

For `N#C/C(=C\c1ccc(-c2cc(Cl)ccc2Cl)o1)C(=O)Nc1cccc2ncccc12` [AGK2], the IC50 [1] is listed as 120 µM and the IC50 [2] is listed as over 40 µM.

With `C[C@H](NC(=O)[C@H](CCCCN)NC(=O)CNC(=O)CNC(=O)[C@@H](NC(=O)[C@H](CO)NC(=O)[C@H](CCCCNC(=S)CCC(=O)O)NC(=O)[C@H](CCCNC(=N)N)NC(=O)[C@H](C)NC(=O)[C@@H](NC(=O)[C@H](CCC(N)=O)NC(=O)[C@@H](N)CCCCN)[C@@H](C)O)[C@@H](C)O)C(=O)O` [H3K9 TSu, KQTAR(TSuK)STGGKA] the IC50 ([3]; Sirt2 1 μM, 0.3 mM acyl peptide, 0.5 mM NAD, * = no inhibition at 100 μM) was over 100 µM, the “inhibition of Sirt2” value ([3]; at 100 μM concentration) was “did not inhibit” and the IC50 ([4]; Sirt3 1 μM, 0.3 mM acyl peptide, 0.5 mM NAD, * = no inhibition at 100 μM) was over 100 µM. The “inhibition of Sirt3” value ([4]; at 100 μM concentration) was “did not inhibit”, the IC50 [1] was 5 µM and the “inhibition of Sirt5 (fluorescence) in fluorogenic assay” value [5] was “close to background level; also recorded: significant inhibition”. The “fluorescence produced by Sirt2 in fluorogenic assay” value [6] was “did not significantly decrease the fluorescence”, the IC50 ([7]; Sirt1 1 μM, 0.3 mM acyl peptide, 0.5 mM NAD, * = no inhibition at 100 μM) was over 100 µM and the “inhibition of Sirt1” value ([7]; at 100 μM concentration) was “did not inhibit”.

Work on “H3K9 succinyl peptide: synthesized H3K9 succinyl lysine peptide, Sirt5 substrate (KQTARK(Suc)-{AMC})” yielded a kcat [8] of 0.029 ± 0.002 s⁻¹, a Km ([8]; read-out: Km for peptide) of 41 ± 11 µM and a Km [9] of over 750 µM. The Km [10] was over 750 µM and the Km [11] was over 750 µM.

With KQTAR(SuK)-AMC (KQTARK(Suc)-{AMC}) the “fluorescence with Sirt5” value [12] was 3600 relative fluorescence unit, the “hydrolysis by Sirt5” value ([13]; 1 μM Sirt5, 3 hrs) was 10% and the “hydrolysis by Sirt5” value ([13]; 5 μM Sirt5, 3 hrs) was 60%.
